Consider three compounds from patent US20260374739A1, “SMALL MOLECULAR WEIGHT CHEMICAL COMPOUND TO ANTAGONIZE EPH-EPHRIN TETRAMERIZATION AND INHIBIT BIDIRECTIONAL SIGNALING” (THE BOARD OF REGENTS OF THE UNIVERSITY OF TEXAS SYSTEM, priority 2022, published 2026).

Where “and” joins values, the source holds several entries; their conditions need not be identical. Equal values may be shown once. Read-outs that look alike come from different tables or passages of the source.

For experiment [1], the target named is T1, EphrinB2-EphB2 (Homo sapiens, UniProt P29323).
T1 construct: soluble human EphB1-His, EphB2-His, and EphB4-His ectodomains; commercially available human EphrinB1-Fc (EB1), EphrinB2-Fc (EB2), and EphrinB3-Fc (EB3) ectodomain proteins; purchased
T1 sequence (P29323 19-543 limits assumed): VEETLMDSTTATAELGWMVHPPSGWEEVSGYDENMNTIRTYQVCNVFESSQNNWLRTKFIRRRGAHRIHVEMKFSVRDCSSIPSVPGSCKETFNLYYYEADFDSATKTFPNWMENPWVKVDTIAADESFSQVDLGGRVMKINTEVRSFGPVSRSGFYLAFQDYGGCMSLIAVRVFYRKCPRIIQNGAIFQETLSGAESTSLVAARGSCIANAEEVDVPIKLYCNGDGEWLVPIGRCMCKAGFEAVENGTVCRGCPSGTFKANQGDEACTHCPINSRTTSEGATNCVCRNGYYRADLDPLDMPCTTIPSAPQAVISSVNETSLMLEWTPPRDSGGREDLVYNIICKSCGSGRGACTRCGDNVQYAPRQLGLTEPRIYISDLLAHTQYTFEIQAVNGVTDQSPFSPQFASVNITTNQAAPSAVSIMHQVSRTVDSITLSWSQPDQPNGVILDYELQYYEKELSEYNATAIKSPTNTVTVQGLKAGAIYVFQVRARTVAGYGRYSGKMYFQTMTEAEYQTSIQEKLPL
As to the kind of experiment: Octet tetramerization inhibition, immobilized human EphrinB2 binding to 50 nM soluble human EphB2. As to conditions: for disruption of unsurmountable tetramer: 0.8-3.2 μM.

Experiment [2] has as its target T1, EphrinB2-EphB2. As to the kind of experiment: Octet 80 sec association/500 sec dissociation, immobilized human EphrinB2-Fc binding to soluble human EphB2-His. As to conditions: for inhibition at 3.2 µM: EphB2, 25 nM EphB2, 3.2 μM compound, A20-I as max control, 0* = less than 0, no inhibition. A digest of the protocol:
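EphrinB2-Fc captured on AHC biosensors, then soluble His-tagged EphB ectodomain (25 nM for % inhibition runs) associated 80 s and dissociated 500 s in PBS, 0.05% Tween-20, 1% DMSO ± compound. Compounds tested at 0.1–3.2 μM with a 10 μM max standard; IC50 from AUC of full traces or at 75 s and 135 s.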

The mark [3] stands for this setting: Absolute AUC/IC50, Table A, EphrinB2-EphB2.
Where [4] appears, read: Absolute Association IC50 (300 sec), Table A, EphrinB2-EphB2.
The mark [5] stands for this setting: Absolute Dissociation IC50 (450 sec), Table A, EphrinB2-EphB2.
[6] abbreviates: Relative AUC/IC50, Table A, EphrinB2-EphB2, compound 7: association only.
Setting [7] is: Relative Association IC50 (300 sec), Table A, EphrinB2-EphB2.
The mark [8] stands for this setting: Relative Dissociation IC50 (450 sec), Table A, EphrinB2-EphB2.
The mark [9] stands for this setting: read-out: % Inhibition: Association + Dissociation (160 sec).
[10] abbreviates: read-out: % Inhibition: Association ONLY (80 sec).

Turning to `COc1ccc2[nH]cc(C(=O)N3CCN(c4ccccc4OC)CC3)c2c1` [Compound 64, (5-methoxy-1H-indol-3-yl)(4-(2-methoxyphenyl)piperazin-1-yl)methanone], the IC50 on EphrinB2-EphB2 [1] (setting [3]), on EphrinB2-EphB2 [1] (setting [4]), at EphrinB2-EphB2 [1] (setting [5]), on EphrinB2-EphB2 [1] (setting [6]), on EphrinB2-EphB2 [1] (setting [7]) and on EphrinB2-EphB2 [1] (setting [8]) was more than 1600 nM throughout. In addition, the inhibition at 3.2 µM at EphrinB2-EphB2 [2] (setting [9]) and at EphrinB2-EphB2 [2] (setting [10]) was 0% each time.
As to `COc1ccccc1N1CCN(Cc2cc(Br)c(O)c3ncccc23)CC1` [Compound 70, 7-bromo-5-((4-(2-methoxyphenyl)piperazin-1-yl)methyl)quinolin-8-ol], the IC50 at EphrinB2-EphB2 [1] (setting [3]) is more than 1600 nM; at EphrinB2-EphB2 [1] (setting [4]), 1200 nM; on EphrinB2-EphB2 [1] (setting [5]), 360 nM; on EphrinB2-EphB2 [1] (setting [6]) it was 170 nM; at EphrinB2-EphB2 [1] (setting [7]) it was 180 nM; at EphrinB2-EphB2 [1] (setting [8]), 190 nM. On EphrinB2-EphB2 [1] (tetramerization inhibitor IC50 (relative), association step, surmountable tetramer), the IC50 was approximately 200 nM. In addition, the values for the inhibition at 3.2 µM at EphrinB2-EphB2 [2] (setting [9]) and at EphrinB2-EphB2 [2] (setting [10]) were 73% and 53.4%, respectively.
For the compound `COc1ccccc1N1CCN(Cc2cc(I)c(O)c3ncccc23)CC1` [Compound 71, 7-iodo-5-((4-(2-methoxyphenyl)piperazin-1-yl)methyl)quinolin-8-ol], on EphrinB2-EphB2 [1], the “tetramerization inhibitor activity” value is “exhibit strong IC50 values”. The “disruption of unsurmountable tetramer” value is given as “fairly strong ability to disrupt some of the unsurmountable tetramer” on EphrinB2-EphB2 [1] (listed as 3511-1) and “able to inhibit a small amount of the EphrinB2-EphB2 unsurmountable tetramer” at EphrinB2-EphB2 [1] (listed as 3511-I). Further, the IC50 at EphrinB2-EphB2 [1] (setting [3]) was 420 nM and 530 nM; on EphrinB2-EphB2 [1] (setting [4]), 680 nM; on EphrinB2-EphB2 [1] (setting [5]), 620 nM and 650 nM; at EphrinB2-EphB2 [1] (setting [6]) it was 380 nM and 410 nM; at EphrinB2-EphB2 [1] (setting [7]) it was 470 nM and 340 nM; on EphrinB2-EphB2 [1] (setting [8]) it was 480 nM and 510 nM. In addition, at EphrinB2-EphB2 [2] (3.2 μM, EphB1, EphB2 and EphB4), the “inhibition of EphrinB2-EphB interactions” value is “activity similar to A20-I max control”. The inhibition at 3.2 µM at EphrinB2-EphB2 [2] (setting [9]) worked out at 73.2%; at EphrinB2-EphB2 [2] (setting [10]), 58.7%.
